Reference: PubChem BioAssay (NCI)
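Briefly, cells in 96-well plates were exposed to five compound concentrations for 48 h, and endpoints were estimated by linear interpolation. At the TGI there is no net growth.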 Where a SMILES comes first, the peptide text is derived from it. The star is where a group is joined. Cbz = O=C(OCc1ccccc1)*

Columns and labels:
Experiment in all cases: inhibition of tumour cell growth, NCI panel, 48 h
NCI-H522 lung = system: NCI-H522 lung
T-47D breast = system: T-47D breast
OVCAR-8 ovarian = system: OVCAR-8 ovarian
MALME-3M melanoma = system: MALME-3M melanoma
HOP-92 NSCLC = system: HOP-92 NSCLC
MDA-N = system: MDA-N
U251 CNS = system: U251 CNS
PC-3 prostate = system: PC-3 prostate
SNB-19 CNS = system: SNB-19 CNS
OVCAR-4 ovarian = system: OVCAR-4 ovarian
HCT-15 colon = system: HCT-15 colon
NCI-H460 lung = system: NCI-H460 lung

SMILES | TGI (NCI-H522 lung) | TGI (T-47D breast) | TGI (OVCAR-8 ovarian) | TGI (MALME-3M melanoma) | TGI (HOP-92 NSCLC) | TGI (MDA-N) | TGI (U251 CNS) | TGI (PC-3 prostate) | TGI (SNB-19 CNS) | TGI (OVCAR-4 ovarian) | TGI (HCT-15 colon) | TGI (NCI-H460 lung)
O=c1[nH]c2nc3ccccc3c(=O)n2/c1=C/c1cccs1 | > 100 µM | > 100 µM | > 100 µM | > 100 µM | > 100 µM | > 100 µM | > 100 µM | > 100 µM | > 100 µM | > 100 µM | > 100 µM | –
C(=Nc1ccc2c(c1)Cc1ccccc1-2)c1ccccn1 | > 100 µM | > 100 µM | > 100 µM | > 100 µM | > 100 µM | > 100 µM | > 100 µM | > 100 µM | > 100 µM | > 100 µM | > 100 µM | > 100 µM
CN1CCc2c(sc3[nH]c(=S)[nH]c(=S)c23)C1 | > 100 µM | > 100 µM | > 100 µM | > 100 µM | > 100 µM | > 100 µM | > 100 µM | > 100 µM | > 100 µM | > 100 µM | > 100 µM | > 100 µM
Cn1nnnc1SC(F)(F)c1nc2ccccc2o1 | > 100 µM | > 100 µM | > 100 µM | > 100 µM | > 100 µM | > 100 µM | > 100 µM | > 100 µM | – | > 100 µM | > 100 µM | > 100 µM
CCOC(=O)CCC(NC(=O)C(Cc1ccccc1)NC(=O)OCc1ccccc1)C(=O)OCC (stereo not drawn) (Cbz-Phe-Glu(OEt)-OEt; configuration not given here) | 29.6 µM | 32.2 µM | 36.2 µM | 33.1 µM | 36.3 µM | 32.6 µM | 28.9 µM | 32.1 µM | 36.7 µM | 32.1 µM | 41.6 µM | 38.5 µM
O=C1c2c(Br)sc(Br)c2C(=O)C1(O)O | 37.3 µM | 49.4 µM | > 100 µM | 34.6 µM | 34.7 µM | > 100 µM | > 100 µM | 51.1 µM | > 100 µM | 34.3 µM | 73.4 µM | > 100 µM
NC1(CCNC(=O)c2ccccc2)CCN(C(=O)c2ccccc2)CC1 | > 100 µM | > 100 µM | > 100 µM | > 100 µM | > 100 µM | > 100 µM | > 100 µM | > 100 µM | > 100 µM | – | > 100 µM | > 100 µM
Cc1ccnc2c1C(=O)C1=C(OC(C)(C)CC1O)C2=O (centres undefined) | 11.1 µM | 19.4 µM | 11.8 µM | 3.02 µM | 24.6 µM | 2.9 µM | 13.2 µM | 13 µM | 21.1 µM | 12.8 µM | 9.97 µM | 8.97 µM
C=C1CCCCCCCCC/C=C/1SCCCSC | > 100 µM | > 100 µM | > 100 µM | > 100 µM | > 100 µM | > 100 µM | > 100 µM | > 100 µM | > 100 µM | > 100 µM | > 100 µM | > 100 µM
COC(=O)[C@@H](NC(=O)N(Cc1ccccc1)C[C@H](CC(C)C)NC(=O)[C@@H](NC(=O)OC(C)(C)C)C(C)C)C(C)C | > 100 µM | > 100 µM | > 100 µM | > 100 µM | > 100 µM | > 100 µM | > 100 µM | > 100 µM | > 100 µM | > 100 µM | > 100 µM | > 100 µM
O=c1cc(NNc2cccc(Cl)c2)[nH]c(=O)[nH]1 | 34.4 µM | > 100 µM | – | 30.6 µM | 35.5 µM | > 100 µM | > 100 µM | > 100 µM | > 100 µM | > 100 µM | 31.4 µM | > 100 µM
CN1CC=C(c2c(N)nc(N)[nH]c2=O)CC1 | > 100 µM | > 100 µM | > 100 µM | > 100 µM | > 100 µM | > 100 µM | > 100 µM | > 100 µM | > 100 µM | > 100 µM | > 100 µM | > 100 µM
Cc1ccc(C(=O)NCc2ccccc2)cc1N=NN(C)C | 90.1 µM | > 100 µM | > 100 µM | > 100 µM | > 100 µM | > 100 µM | > 100 µM | > 100 µM | > 100 µM | > 100 µM | > 100 µM | > 100 µM
O=c1cc(CF)[nH]c(=S)[nH]1 | > 100 µM | > 100 µM | > 100 µM | > 100 µM | > 100 µM | > 100 µM | > 100 µM | > 100 µM | > 100 µM | > 100 µM | > 100 µM | > 100 µM
Oc1c(Br)ccc2cccnc12 | 6.21 µM | 21.1 µM | > 100 µM | > 64.4 µM | 69.7 µM | > 100 µM | > 100 µM | > 100 µM | > 100 µM | > 92.9 µM | > 100 µM | 23.2 µM
O=C1CCSCCC(=O)Nc2ccccc2N1 | > 100 µM | > 100 µM | > 100 µM | > 100 µM | > 100 µM | > 100 µM | > 100 µM | > 100 µM | > 100 µM | > 100 µM | > 100 µM | > 100 µM
C=CC1(CC[C@]2(c3ccc(OC)c(OC)c3)C=[N+]([O-])O[C@H](O[C@@H]3CCCC[C@H]3C(C)(C)c3ccccc3)C2)OCC(C)(C)CO1 | 17.1 µM | > 46.7 µM | 40.6 µM | 24.8 µM | > 46.6 µM | 24.7 µM | > 50.5 µM | 28.3 µM | > 54.1 µM | 28.9 µM | > 48.5 µM | > 59.8 µM
COc1ccc(N2C(=O)C(=O)N(c3ccc(N=Nc4ccccc4)cc3)C2=S)cc1 | 20.2 µM | 45.1 µM | 35.6 µM | 33.8 µM | 31.7 µM | 40.3 µM | 32.6 µM | 33.8 µM | 53.4 µM | 37.7 µM | 32.4 µM | 34.1 µM
CCOC(=O)CCC1(CCC(=O)OCC)CCCCCCCCC(CCC(=O)OCC)(CCC(=O)OCC)C(=O)C1=O | > 100 µM | > 100 µM | > 100 µM | > 100 µM | > 100 µM | > 100 µM | > 100 µM | > 100 µM | > 100 µM | > 100 µM | > 100 µM | > 100 µM
